Reference: ChEMBL document CHEMBL3046503, “Insulinotropic activity of chromonyl-2,4-thiazolidinediones” (2009)

How the values were obtained:
Type in all cases: functional
INS1 [1] = assay: Insulinotropic activity in Rattus norvegicus (rat) INS-1 cells assessed as increase of glucose-induced insulin release at 0.01 mg/ml after 90 min by radioimmunoassay relative to 5.6 mM of glucose
INS1 [2] = assay: Insulinotropic activity in Rattus norvegicus (rat) INS-1 cells assessed as increase of glucose-induced insulin release at 0.001 mg/ml after 90 min by radioimmunoassay relative to 5.6 mM of glucose
INS1 [3] = assay: Insulinotropic activity in Rattus norvegicus (rat) INS-1 cells assessed as increase of glucose-induced insulin release at 3 mM after 90 min by radioimmunoassay relative to 5.6 mM of glucose

Compound | Activity (INS1 [1]) | Activity (INS1 [2]) | Activity (INS1 [3])
CCOC(=O)CN1C(=O)S/C(=C/c2coc3c(C)cc(C)cc3c2=O)C1=O | 154.4% | 138% | –
CC(C)c1ccc2occ(/C=C3/SC(=O)N(CC(=O)O)C3=O)c(=O)c2c1 | 144.3% | 125.6% | –
CCOC(=O)CN1C(=O)S/C(=C/c2coc3ccc([N+](=O)[O-])cc3c2=O)C1=O | 74.1% | 98.8% | –
OC[C@H]1OC(O)[C@H](O)[C@@H](O)[C@@H]1O (some centres not stated) [DEXTROSE] | – | – | 73%
O=C(O)CN1C(=O)S/C(=C/c2coc3ccc([N+](=O)[O-])cc3c2=O)C1=O | 111% | 107.8% | –
Cc1cc(C)c2occ(/C=C3/SC(=O)NC3=O)c(=O)c2c1 | 84.64% | 85.89% | –
CCOC(=O)CN1C(=O)S/C(=C/c2coc3ccc(C(C)C)cc3c2=O)C1=O | 180.5% | 138.5% | –
CCOC(=O)CN1C(=O)S/C(=C/c2coc3ccc(C)cc3c2=O)C1=O | 177.7% | 153.1% | –
O=C1NC(=O)/C(=C\c2coc3ccc([N+](=O)[O-])cc3c2=O)S1 | 69.2% | 81.44% | –
CCOC(=O)CN1C(=O)S/C(=C/c2coc3ccccc3c2=O)C1=O | 65.53% | 83.15% | –
Cc1cc(C)c2occ(/C=C3/SC(=O)N(CC(=O)O)C3=O)c(=O)c2c1 | 131.6% | 102.8% | –
COc1ccc(Cl)cc1C(=O)NCCc1ccc(S(=O)(=O)NC(=O)NC2CCCCC2)cc1 [GLYBURIDE] | – | 179.6% | –
O=C1NC(=O)/C(=C\c2coc3ccccc3c2=O)S1 | 63.57% | 83.98% | –
Cc1ccc2occ(/C=C3/SC(=O)NC3=O)c(=O)c2c1 | 75.61% | 90.53% | –
CC(C)c1ccc2occ(/C=C3/SC(=O)NC3=O)c(=O)c2c1 | 81.55% | 89.46% | –
O=C(O)CN1C(=O)S/C(=C/c2coc3ccccc3c2=O)C1=O | 121% | 117.2% | –
Cc1ccc2occ(/C=C3/SC(=O)N(CC(=O)O)C3=O)c(=O)c2c1 | 120.7% | 102.2% | –
